Test results from PubChem BioAssay (NCI).
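Interpolation was linear, between the two tested concentrations surrounding the appropriate level; five concentrations were tested over 48 hours in 96-well plates. At the TGI there is no net growth.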

How the values were obtained:
Experiment in all cases: DTP human tumour cell line panel, 48 h
[1] = system: 786-0 renal
[2] = system: A498 renal
[3] = system: A549 NSCLC
[4] = system: ACHN renal
[5] = system: BT-549 breast
[6] = system: CAKI-1 renal
[7] = system: CCRF-CEM leukemia
[8] = system: COLO 205 colon
[9] = system: DU-145 prostate
[10] = system: EKVX NSCLC
[11] = system: HCC-2998 colon
[12] = system: HCT-116 colon
[13] = system: HCT-15 colon
[14] = system: HL-60(TB) leukemia
[15] = system: HOP-62 NSCLC
[16] = system: HOP-92 NSCLC
[17] = system: HS 578T breast
[18] = system: HT29 colon
[19] = system: IGROV1 ovarian
[20] = system: K-562 leukemia
[21] = system: KM12 colon
[22] = system: LOX IMVI melanoma
[23] = system: M14 melanoma
[24] = system: MALME-3M melanoma
[25] = system: MCF7 breast
[26] = system: MDA-MB-231 breast
[27] = system: MDA-MB-435
[28] = system: MDA-N
[29] = system: MOLT-4 leukemia
[30] = system: NCI-H226 lung
[31] = system: NCI-H23 lung
[32] = system: NCI-H460 lung
[33] = system: NCI/ADR-RES ovarian
[34] = system: OVCAR-4 ovarian
[35] = system: OVCAR-5 ovarian
[36] = system: OVCAR-8 ovarian
[37] = system: PC-3 prostate
[38] = system: RPMI-8226 leukemia
[39] = system: RXF 393 renal
[40] = system: SF-268 CNS
[41] = system: SF-295 CNS
[42] = system: SF-539 CNS
[43] = system: SK-MEL-2 melanoma
[44] = system: SK-MEL-28 melanoma
[45] = system: SK-MEL-5 melanoma
[46] = system: SK-OV-3 ovarian
[47] = system: SN12C renal
[48] = system: SNB-19 CNS
[49] = system: SNB-75 CNS
[50] = system: SW-620 colon
[51] = system: T-47D breast
[52] = system: TK-10 renal
[53] = system: U251 CNS
[54] = system: UACC-257 melanoma
[55] = system: UACC-62 melanoma
[56] = system: UO-31 renal
[57] = system: NCI-H522 lung
[58] = system: OVCAR-3 ovarian

COc1ccc(-c2nc3ccccc3c(=S)n2OC(C)=O)cc1
TGI [1]: > 25 µM | TGI [2]: > 25 µM | TGI [3]: > 25 µM | TGI [4]: > 25 µM | TGI [5]: > 25 µM | TGI [6]: > 25 µM | TGI [7]: > 25 µM | TGI [8]: > 25 µM | TGI [9]: > 25 µM | TGI [10]: > 25 µM | TGI [11]: > 25 µM | TGI [12]: > 25 µM | TGI [13]: > 25 µM | TGI [14]: 17.2 µM | TGI [15]: > 25 µM | TGI [16]: > 25 µM | TGI [17]: > 25 µM | TGI [18]: > 25 µM | TGI [19]: > 25 µM | TGI [20]: > 25 µM | TGI [21]: > 25 µM | TGI [22]: > 25 µM | TGI [23]: > 25 µM | TGI [24]: 20.4 µM | TGI [25]: > 25 µM | TGI [26]: > 25 µM | TGI [27]: > 25 µM | TGI [28]: > 25 µM | TGI [29]: > 25 µM | TGI [30]: > 25 µM | TGI [31]: > 25 µM | TGI [32]: > 25 µM | TGI [33]: > 25 µM | TGI [34]: > 25 µM | TGI [35]: > 25 µM | TGI [36]: > 25 µM | TGI [37]: > 25 µM | TGI [38]: > 25 µM | TGI [39]: > 25 µM | TGI [40]: > 25 µM | TGI [41]: > 25 µM | TGI [42]: > 25 µM | TGI [43]: > 25 µM | TGI [44]: > 25 µM | TGI [45]: > 25 µM | TGI [46]: > 25 µM | TGI [47]: > 25 µM | TGI [48]: > 25 µM | TGI [49]: > 25 µM | TGI [50]: > 25 µM | TGI [51]: > 25 µM | TGI [52]: > 25 µM | TGI [53]: > 25 µM | TGI [54]: > 25 µM | TGI [55]: > 25 µM | TGI [56]: > 25 µM

CC1OC(O[C@H]2C3C=CO[C@@H](OC4OC(CO)C(O)C(O)C4O)C3[C@@]3(COC(=O)/C=C/c4ccccc4)O[C@@H]23)C(O)C(O)C1O (stereo partly drawn)
TGI [1]: > 100 µM | TGI [2]: > 100 µM | TGI [3]: > 100 µM | TGI [4]: > 100 µM | TGI [5]: > 100 µM | TGI [6]: > 100 µM | TGI [7]: > 100 µM | TGI [8]: > 100 µM | TGI [9]: > 100 µM | TGI [10]: > 100 µM | TGI [11]: > 100 µM | TGI [12]: > 100 µM | TGI [13]: > 100 µM | TGI [14]: > 100 µM | TGI [15]: > 100 µM | TGI [16]: > 100 µM | TGI [17]: > 100 µM | TGI [18]: > 100 µM | TGI [19]: > 100 µM | TGI [20]: > 100 µM | TGI [21]: > 100 µM | TGI [22]: > 100 µM | TGI [23]: > 100 µM | TGI [24]: > 100 µM | TGI [25]: > 100 µM | TGI [26]: > 100 µM | TGI [27]: > 100 µM | TGI [28]: > 100 µM | TGI [29]: > 100 µM | TGI [30]: > 100 µM | TGI [31]: > 100 µM | TGI [32]: > 100 µM | TGI [57]: > 100 µM | TGI [33]: > 100 µM | TGI [58]: > 100 µM | TGI [34]: > 100 µM | TGI [35]: > 100 µM | TGI [36]: > 100 µM | TGI [37]: > 100 µM | TGI [38]: > 100 µM | TGI [39]: > 100 µM | TGI [40]: > 100 µM | TGI [41]: > 100 µM | TGI [43]: > 100 µM | TGI [44]: > 100 µM | TGI [45]: > 100 µM | TGI [46]: > 100 µM | TGI [47]: > 100 µM | TGI [48]: > 100 µM | TGI [49]: > 100 µM | TGI [50]: > 100 µM | TGI [51]: > 100 µM | TGI [52]: > 100 µM | TGI [53]: > 100 µM | TGI [54]: > 100 µM | TGI [55]: > 100 µM | TGI [56]: > 100 µM
